Test results from patent US12447198B2, “Peptides and fragments for treating diabetes and associated metabolic diseases” (Betavive Ltd., priority 2021, dated 2025).
Where no end group is shown, it is not given here.

Tests used:
[1] = tested on: STZ-treated mouse islets; assay: MTT viability of STZ-treated mouse islets; type: cell-based; details: increasing concentrations
Source text: Yellow dye MTT is converted to a purple dye by mitochondrial reductase in viable cells. Therefore, the amount of purple dye present determined by measuring optical density of cells at 570 nm serves as a measurement of cell viability.

[2] = tested on: β-MIN6 cells; assay: Insulin secretion of β-MIN6 cells following glucose induction; type: cell-based, mouse; details: 1 week treatment; IGF-2 5 nM, 20 nM, 80 nM
Source text: β-MIN6 cells serve as an in vitro model of mouse pancreatic islets. β-MIN6 cells were used as an in vitro model to measure the effects of treatment with IGF-2.

[3] = tested on: STZ-treated mouse islets; assay: Insulin secretion from STZ-treated mouse islets; type: cell-based; details: islets treated with 2.5 mM STZ; 48 hours after treatment; IGF-2 50 nM and 500 nM, GLP-1 100 nM and 1000 nM
Procedure: Mouse islet cells were treated with 2.5 mM STZ and subsequently treated with either IGF-2 (FA) at 50 nM and 500 nM, or with GLP-1 at 100 nM and 1000 nM.

[4] = tested on: mice; assay: Blood glucose concentration kinetics of IGF-2 vs. insulin in a glucose tolerance test; type: in vivo, mouse; details: insulin 1 unit per kg, IGF-2 800 μg/kg
Source text: IGF-2 therefore provides an effect that mimics insulin within the body, and that effect is referred to herein as an “insulinomimetic” effect. […] In this example, administering IGF-2 can provide better results than administering insulin with respect to blood glucose levels, even when only a single dose was used. Without being bound by this theory, it is possible that the IGF-2 combines with a number of binding proteins in the blood and its active free form is then released slowly from the complex.

For “GLP-1 (HAEGTFTSDVSSYLEGQAAKEFIAWLVKGR; ends and bridges not checked; UniProt P01275 98-127, looked up) [a satiety hormone, comparator in vitro, reference compound]”, the “mouse islet viability (MTT, optical density at 570 nm)” value [1] was “did not significantly increase mouse islet viability”, the “insulin secretion following glucose induction” value [2] was “does not increase insulin secretion” and the insulin secretion [3] was “did not significantly increase insulin secretion”.

insulin [reference compound] was tested, and the “glucose level after administration” value ([4]; glucose tolerance test in mice) was “the glucose level decreased” and the “time after which the recovery in glucose levels began” value ([4]; single dose) was “after two hours”.
